Source: patent US8324279B2, “Compositions and methods for inhibiting an isoform of human manganese superoxide dismutase” (MitoTek, LLC, priority 2003, dated 2012)
Entries after “also recorded” stand apart in the source; their conditions may differ.

Legend:
[1] = system: adult cardiomyocyte explants; experiment: Doxorubicin induction of isoMnSOD expression in adult heart explants (Western Blot); assay type: cell-based, rat; details: 3 days, 0.1 nM to 1.0 μM Doxorubicin, AdvDMEM 2% FBS, FIG. 3
Source text: Adult cardiomyocytes were isolated and purified following the combination of perfusion techniques (Borg et al. Recognition of extracellular matrix components by neonatal and adult cardiac myocytes. Dev Biol. 1984; 104:86-96) and an attachment procedure (Bugaisky L B, Zak R. Differentiation of adult rat cardiac myocytes in cell culture. Circ Res. 1989; 64:493-500) as described by Sil et al. (Sil et al. Myotrophin in human cardiomyopathic heart. Circ Res. 1993; 73:98-108). Briefly, after rats (5 weeks old) were killed by decapitation, the hearts were aseptically excised and residual blood was removed. The heart was perfused in Joklik's medium (containing Joklik's minimal essential medium, 25 mmol/L glutamic acid, 30 mmol/L taurine, and 1 mmol/L adenosine) without recirculation on a modified Langendorff apparatus for approximately 10 minutes at 37° C. The perfusion was then continued for 30 minutes at the same temperature, with recirculation in Joklik's medium containing collagenase type II (100 U/mL). After perfusion, the ventricles were cut into small pieces and tritulated in 0.05% Trypsin/EDTA for 10 min. Cardiac explants were cultured overnight on laminin-coated (20 μg per well) 35-mm six-well plates in medium 199 containing 5% FBS, 5 mM creatine, 2 mM L-carnitine, and 5 mM taurine. […]

altMnSODreport = experiment: Testing of drugs for toxicity with the reporter gene system; assay type: cell-based; details: cells comprising the reporter gene system
Method: Drugs are tested alone or in combination in cancerous or diseased cells and in healthy cells. The compounds are added to cells comprising the reporter gene system. The induction of the reporter is characterized in the absence and the presence of the drug(s).
Breast cancer cell line, MDA-MB-435, Her-2/neu over-expressing (ATCC), fibroblast cells lines NIH3T3 and B104, which are NIH3T3 cells transfected with the rat ErbB2/Her2 oncogene, and normal primary cells (Clonetics; rat cardiomyocytes, donated by Kathryn Maschhoff, MD PhD, Neonatology, University of Pennsylvania) are treated with doxorubicin alone and in combination with the rat ErbB2/Her2 17.6.4 monoclonal antibody, which downregulates the human and rat Her2 receptor (Zhang et al., 1999)(Oncogene), and Herceptin™ (Genentech). It is also determined if the Her2 mAbs induces isoMnSOD expression in untransfected cells and cells transfected with altMnSODreport. A dose-response curve is established, using western immunoblot analysis of the isoMnSOD protein and the expression of the reporter construct. A similar analysis is performed for doxorubicin treatment of cells. Both treatments are analyzed for their effects on mtDNA stability by Southern hybridization analysis, induction of lipid peroxidation by immunodetection of HNE-modified proteins, and induction of apoptosis by activation of caspases 9 and 3.

isoMnSOD [2] = experiment: Peroxidative assay of native mitochondrial extracts from compound-treated pancreatic explants (ROS-activity blot); assay type: cell-based, pig; details: pancreatic explant cultured 1 hr at 37° C. with equal volume of 2 μM compound; FIG. 1
Method: Recombinant and mammalian detergent extracts of native mitochondrial proteins were separated in a 7% PAGE gel without SDS containing 375 mM Tris pH 8.2 at 100 volts for 1.5 hr. After electrotransfer of proteins to nitrocellulose using transfer buffer without SDS, peroxidative activity was measured directly upon the filter by their incubation with 0.5 ml of the Femtomole luminol solution (Pierce) containing 1 mM H2O2 and exposing to x-ray film or other means of detecting chemiluminescence.
F10 medium was used throughout the procedure. Pancreas (8 grams) from a 3 kilo pig was minced, washed twice, and 1 g of tissue was resuspended in 5 ml of FIO medium. […] Explants were stored frozen at −70° C. Tissue was homogenized in Buffer A at 4° C. and mitochondria was isolated by differential centrifugation and stored frozen at −70° C. Peroxidative assay of native mitochondrial extracts analyzed by the ROS-activity blot.

isoMnSOD [3] = target: T1, isoMnSOD (Homo sapiens, UniProt P04179); experiment: Detection of inhibitors bound to isoMnSOD (immunoprecipitation/western blot); details: anti-dopamine or anti-serotonin antibody; FIG. 2A and 2B
T1 sequence (P04179 25-183 isoform P04179-2 limits assumed): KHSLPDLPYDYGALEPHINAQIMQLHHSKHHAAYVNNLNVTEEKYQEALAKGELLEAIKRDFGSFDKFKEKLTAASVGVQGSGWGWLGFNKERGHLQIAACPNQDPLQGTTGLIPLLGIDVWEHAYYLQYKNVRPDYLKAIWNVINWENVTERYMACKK
Method: Covalent modification of the MnSOD-Exon3-deleted isoform was measured by a combined immuneprecipitation/western blot analysis. Immunoblots for detecting AA-DA, EPA-DA, DHA-DA, C18:4(ω-3)-DA adducts were performed using anti-dopamine rabbit polyclonal (Chemicon) and anti-serotonin goat polyclonal antibodies (ImmunoStar), respectively. After immunoprecipitating using an antibody against the inhibitor, isoMnSOD was detected as described above.

isoMnSOD [4] = experiment: Pro-oxidant activity of isoMnSOD, at least one of the assays provided in the Examples; details: according to at least one of the assays provided in the Examples
Method: (§1) Each test compound was prepared by mixing 5 μL of a 1 mM test compound stock solution in ethanol with 5 μL of 0.1 M KOH, followed by the addition of 5 ml of TBS for a final concentration of 1 μM test compound. Equal amounts of native protein extracts from pancreatic mitochondria (obtained according to the protocol of Example 5) were loaded in separate wells and resolved in a 7% PAGE gel without SDS, electrotransferred to PVDF and divided into strips. Each PVDF strip was incubated with 1 μM of test compound in TBS for 30 minutes, washed twice in TBS for 20 minutes, and the peroxidative activity of isoMnSOD was measured by incubation of each strip with 1 mM H2O2 in 0.4 ml of the luminol solution contained within the Femtomole chemiluminescence assay kit (Pierce) and exposed to x-ray film (FIG. 4).
Peroxidative assay of native mitochondrial extracts analyzed by the ROS-activity blot.

isoMnSOD [5] = experiment: Drug inhibition method: peroxidative activity of isoMnSOD on PVDF strips (ROS-activity blot); details: 1 μM test compound for 30 minutes; 1 mM H2O2, luminol chemiluminescence; FIG. 4
Method: as §1
All procedures were carried out at 4° C.

Compound	isoMnSOD expression [1]	expression of altMnSOD report (altMnSODreport)	mitochondrial peroxidase activity (isoMnSOD [2])	binding to isoMnSOD (covalent modification of the MnSOD-Exon3-deleted isoform) (isoMnSOD [3])	pro-oxidant activity of isoMnSOD (isoMnSOD [4])	peroxidative activity of isoMnSOD (isoMnSOD [5])
COc1cccc2c1C(=O)c1c(O)c3c(c(O)c1C2=O)C[C@@](O)(C(=O)CO)C[C@@H]3O[C@H]1C[C@H](N)[C@H](O)[C@H](C)O1 [Doxorubicin]	induced isoMnSOD expression; also recorded: induces the expression of isoMnSOD	causes an increase in expression of altMnSOD report				
CCCCC/C=C\C/C=C\C/C=C\C/C=C\CCCC(=O)NCCc1c[nH]c2ccc(O)cc12 [arachidonoyl-serotonin, arachidonoyl serotonin]			inhibited the mitochondiral peroxidase activity	able to bind to isoMnSOD	found to inhibit pro-oxidant activity of isoMnSOD	
CC/C=C\C/C=C\C/C=C\C/C=C\C/C=C\C/C=C\CCC(=O)NCCc1ccc(O)c(O)c1 [docosahexaenoyl (DHA)-dopamine, docosahexaenoyl dopamine]			inhibited the mitochondiral peroxidase activity	able to bind to isoMnSOD	found to inhibit pro-oxidant activity of isoMnSOD	inhibit peroxidative activity more significantly than the other compounds
CC/C=C\C/C=C\C/C=C\C/C=C\C/C=C\CCCC(=O)NCCc1ccc(O)c(O)c1 [eicosapentaenoyl (EPA)-dopamine, eicosapentaenoyl dopamine]			did not inhibit peroxidase activity to the same effect		found to inhibit pro-oxidant activity of isoMnSOD	inhibit peroxidative activity more significantly than the other compounds
C18:4(ω-3)-dopamine			inhibited the mitochondiral peroxidase activity	able to bind to isoMnSOD	found to inhibit pro-oxidant activity of isoMnSOD	inhibit peroxidative activity more significantly than the other compounds
